Article PMC10580381 (ACS Pharmacology & Translational Science, 2023)
Several values for one entry are separate records, joined by “and”; a condition that tells them apart may be missing. Identical values can stand only once.

Assays:
[1] = tested on: Bim (BCL2L11); assay: Real-time PCR of Bim expression in H1975; assay type: cell-based, human; conditions: H1975, 24 h, flunarizine 2.5, 5, or 10 μM or SAHA 0.25, 0.5, or 1 μM; all concentrations tested
Method: Reverse transcription was performed using 1 μg of total RNA sample with the PrimeScript First Strand cDNA Synthesis Kit (TaKaRa Biomedical Technology) at 37 °C for 10 min. The cDNA was then amplified by real-time PCR to determine the relative expression of p27^Kip1 and BIM using the KAPA SYBR FAST qPCR kit (KapaBiosystems, Wilmington, Massachusetts) with a LightCycler 480 Instrument I instrument (Roche Applied Science, Indianapolis, Indiana). The house-keeping gene GAPDH was also measured for normalization. Specific primer sequences used in the PCR reactions are p27^Kip1, forward 5′-[…]-3′ and reverse 5′-[…]-3′; Bim, forward 5′-[…]-3′ and reverse 5′-[…]-3′; and GAPDH, forward 5′-[…]-3′ and reverse 5′-[…]-3′. The PCR temperature program was set at 95 °C for 5 min, followed by 35 cycles of 95 °C for 10 s and 60 °C for 10 s. The fluorescent signal was detected at the end of the PCR elongation step of every cycle to keep track of the amount of amplified DNA. ΔCt was calculated by subtracting the Ct of GAPDH from the Ct of Bim or p27^Kip1. Fold change in gene expression was analyzed by the 2^–ΔΔCt method.

[2] = target: T1, recombinant human HDAC6 (Homo sapiens, UniProt Q9UBN7); assay: biochemical; conditions: IC50 HDAC6, recombinant HDAC6, mean ± SD, three independent experiments
T1 sequence (Q9UBN7 1-1215): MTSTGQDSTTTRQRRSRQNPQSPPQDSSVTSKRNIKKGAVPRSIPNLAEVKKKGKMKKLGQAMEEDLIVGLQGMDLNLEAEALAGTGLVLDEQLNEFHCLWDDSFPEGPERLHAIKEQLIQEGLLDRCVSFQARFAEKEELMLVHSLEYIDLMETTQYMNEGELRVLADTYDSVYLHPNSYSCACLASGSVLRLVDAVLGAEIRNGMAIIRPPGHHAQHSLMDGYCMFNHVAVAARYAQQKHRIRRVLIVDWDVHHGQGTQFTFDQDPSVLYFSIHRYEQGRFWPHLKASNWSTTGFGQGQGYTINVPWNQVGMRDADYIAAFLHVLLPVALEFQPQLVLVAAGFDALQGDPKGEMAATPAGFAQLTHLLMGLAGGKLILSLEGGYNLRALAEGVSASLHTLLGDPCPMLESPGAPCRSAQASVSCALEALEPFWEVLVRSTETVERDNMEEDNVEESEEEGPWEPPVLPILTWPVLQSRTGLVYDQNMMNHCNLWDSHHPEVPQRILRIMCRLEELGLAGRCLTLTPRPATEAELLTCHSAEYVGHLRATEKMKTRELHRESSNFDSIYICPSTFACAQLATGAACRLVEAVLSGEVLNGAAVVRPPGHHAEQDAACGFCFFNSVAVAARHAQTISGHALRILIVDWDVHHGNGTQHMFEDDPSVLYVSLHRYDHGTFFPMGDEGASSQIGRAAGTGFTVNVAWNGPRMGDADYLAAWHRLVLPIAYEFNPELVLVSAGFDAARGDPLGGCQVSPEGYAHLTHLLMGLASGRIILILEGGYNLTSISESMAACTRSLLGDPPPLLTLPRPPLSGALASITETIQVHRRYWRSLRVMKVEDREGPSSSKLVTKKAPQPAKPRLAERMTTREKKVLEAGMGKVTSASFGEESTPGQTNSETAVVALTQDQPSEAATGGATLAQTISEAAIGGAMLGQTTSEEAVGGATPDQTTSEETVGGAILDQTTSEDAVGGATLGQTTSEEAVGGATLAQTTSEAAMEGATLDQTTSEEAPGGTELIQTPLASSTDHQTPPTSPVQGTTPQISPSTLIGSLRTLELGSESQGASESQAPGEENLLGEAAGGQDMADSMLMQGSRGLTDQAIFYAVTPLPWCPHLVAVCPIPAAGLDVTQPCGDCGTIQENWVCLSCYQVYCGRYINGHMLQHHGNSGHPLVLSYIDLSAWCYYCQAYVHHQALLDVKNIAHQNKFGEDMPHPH

[3] = tested on: A549 cells; assay: SRB cell proliferation assay, A549; conditions: Homo sapiens, A549, read-out: cell viability (%)

IC50 [2]: ~5.6 µM and 5.6 µM
Structure (SMILES): Fc1ccc(C(c2ccc(F)cc2)N2CCN(C/C=C/c3ccccc3)CC2)cc1 [flunarizine]
Bim expression [1]: significantly increase | viability at 2.5 µM [3]: 101 ± 5% | viability at 5 µM [3]: 95 ± 6% | viability at 10 µM [3]: 102 ± 8%
